Source: patent US10954271B2, “Anti-microbial peptides” (priority 2014, dated 2021)
≈ marks a conversion by molar mass, not a printed value. Positions of bridges follow the written chain, without caps; N, C: chain ends. Non-standard residues stand in square brackets, D forms with d. Residues, ends and D or L forms follow the SMILES beside them. d2Nal = N[C@H](Cc1ccc2ccccc2c1)C(=O)O; Nle = CCCC[C@H](N)C(=O)O

Legend:
M. smegmatis = M. smegmatis adhesion / anti-biofilm assay, counting crystal violet-positive cells; format: cell-based
From the text: A second series of cationic-aromatic AMPs was designed, and linked (via the N-terminus) to linear anti-biofilm peptides. This created a hybrid anti-biofilm/AMP (AB01), with a Gram-positive specific C-terminal di-peptide (dVal-dPro). A model Gram positive organism that rapidly forms biofilms (M. smegmatis; Ojha, A. and G. F. Hatfull, The role of iron in Mycobacterium smegmatis biofilm formation: the exochelin siderophore is essential in limiting iron conditions for biofilm formation but not for planktonic growth. Mol Microbiol, 2007. 66(2): p. 468-83) was used to assess the inhibition of adhesion/anti-biofilm activity of AB01 & two control AMPs, using a 2 day old biofilm.
The effect of three AMPs on M. smegmatis adhesion was measured on day 0 (data not shown) & after 2 days of biofilm growth, counting crystal violet-positive cells (FIG. 5; see O'Toole, G. A., Microtiter dish biofilm formation assay. J Vis Exp, 2011(47)). Control bacterial adhesion was designated as 100%, and the effect of an added AMP on the cell count was quantified as a percent of the control. The AMPs included Model 01, an AMP of the (RW)n series, (RW)4: [17]; AM11, a cyclized analog of the (RW)n series c(RW)3; and AB01, a hybrid of a cyclized AMP and a linear anti-biofilm peptide.

E. coli [1] = tested on: E. coli
B. subtilis = test: Anti-microbial activity, concentration needed to inhibit 50% of bacterial division (IC50); format: cell-based
Procedure: (§1) Further, a set of the anti-microbial peptides described herein were tested for their anti-microbial activity on both Gram-positive and Gram-negative bacteria. […] Unexpectedly, it was further observed that the C-terminal residues (denoted by bold font) selectively target gram-negative or gram-positive bacteria, as indicated.
(§2) Anti-microbial activity is reported as the concentration needed to inhibit 50% of bacterial division (ICso, a standard used in the AMP field). […] In contrast, Opt 3-5 have a Phe for Pro substitution in the C-terminal di-peptide, which produces relatively specificity for Gram-negative organisms (e.g. E. coli). Melittin is a cationic-hydrophobic AMP that served as anti-microbial positive control. Agglutination, an attribute assisting in the clearance of bacterial cells during infection, was assessed via microscopy, and was present with all five AMPs.

E. coli [2] = test: as above; format: cell-based; conditions: for relative specificity Gram-positive versus Gram-negative: from IC50 against E. coli and B. subtilis, Table 1
Procedure: as §1, §2

[3] = tested on: Gram-positive and Gram-negative bacteria; test: Membrane disruption and cell agglutination assessed via microscopy; format: cell-based
Procedure: as §1, §2
(§3) (1) Microscopy. Bacteria can be treated with dilutions of AMPs were directly analyzed via microscopy for membrane disruption phenotypes, including cell agglutination, cell lysis, and cell elongation/septum disruption. Cells can be also monitored for septum inhibition and elongation through use of the membrane dye FM5-95 and DAPI. Additionally the cells can be imaged and stained with the Life Technologies LIVE/DEAD® BacLight™ Bacterial Viability Kit For killing kinetics of the anti-microbial peptides.
(2) Agglutination and Protein Aggregation. Using the antimicrobial 96 well assay described above, imaging of the 96 well plate and can provide a method for the determination of the MAC (minimum agglutination concentration) for the bacteria, as described. Torrent et al., PLoS Pathogens 8(11): e1003005 (2012).

[4] = tested on: Gram-positive and Gram-negative bacteria; test: Non-membrane activity (mode of action: septum inhibition, protein aggregation, cell division); format: cell-based
Procedure: as §1
Core sequences were cyclized to enhance druggability and anti-microbial activity. Multiple cationic residues increased binding to anionic membrane and intracellular structures. […] The C-terminal di-peptides in these AMPs were used for their ability to enhance oral activity in peptides. It was discovered that they also directed relative anti-microbial activity towards either Gram-positive or negative organisms (Table 1 and FIG. 5). These AMPs appear to have multiple mechanisms of action (Table 1), potentially mediated by specific binding to the bacterial membrane, and their intracellular accumulation (data not shown). In essence, these AMPs are a form of combination therapy.
as §3

[5] = orally administered, canines (beagles)
From the text: We further conducted a preliminary study in a large animal canine model to assess cardiovascular and hematologic safety and clearance of the peptide TCAM207 (SEQ NO: 209) from plasma over a multiple day dosing. Male and female purpose bred beagles were randomized to treatment and instrumented with Holter 9 lead electrocardiograph (ECG) jackets and non-invasive oscillographic paw blood pressure monitoring (emkaPAC 4G telemetry). ECG and BP signals were sampled at 500 Hz using GLP compliant software (IOX, EMKA). ECG signals were saved continuously and blood pressure determined hourly. Blood samples were taken before and after 14 days of SC or oral drug administration for complete chemistry panel and CBC analysis. Samples were taken 1, 2, 4, 8, 12, and 24 hours after drug administration on days 1 and 5 for assay of plasma IIP to assess PK profile. After a 1-2 week washout, dogs were randomized to the other arm of the study.

[6] = normal beagles (n=4), 5 days of 5× therapeutic dose

CC[C@H](C)[C@H](NC(=O)[C@H](CCCNC(=N)N)NC(=O)[C@H](Cc1ccccc1)NC(C)=O)C(=O)N[C@@H](CCCNC(=N)N)C(=O)N[C@H](C(=O)N[C@@H](CCCNC(=N)N)C(=O)N[C@H](C(=O)N[C@H]1CC(=O)NCCCC[C@@H](C(=O)N[C@@H](C(=O)N2CCC[C@@H]2C(N)=O)C(C)C)NC(=O)[C@H](CCCNC(=N)N)NC(=O)[C@H](Cc2c[nH]c3ccccc23)NC(=O)[C@H](Cc2ccccc2)NC(=O)[C@@H](Cc2ccc3ccccc3c2)NC(=O)[C@H](CCCNC(=N)N)NC(=O)[C@H](CCCNC(=N)N)NC1=O)C(C)C)C(C)C [AB01, Ac-FRIRVRV-c[Asp-RR-dNal(21-FWR-Lys]-dVal-dPro-CONH2] (Ac-FRIRVRVDRR[d2Nal]FWRK[dV][dP]-NH2; lactam 8-15)
concentration that prevented adhesion in a 2 day old biofilm (M. smegmatis; 2 day old biofilm): 3 to 5 µM | potency in inhibition of adhesion/anti-biofilm activity relative to Model 01 (M. smegmatis; 2 day old biofilm): ~100 fold | concentration that prevented adhesion on day 0 (M. smegmatis): 1 µM | MIC for E. coli (E. coli [1]): 25 µM

CC[C@H](C)[C@H](NC(=O)CN)C(=O)NCC(=O)N[C@@H](C)C(=O)N[C@H](C(=O)N[C@@H](CC(C)C)C(=O)N[C@@H](CCCCN)C(=O)N[C@H](C(=O)N[C@@H](CC(C)C)C(=O)N[C@H](C(=O)N[C@H](C(=O)NCC(=O)N[C@@H](CC(C)C)C(=O)N1CCC[C@H]1C(=O)N[C@@H](C)C(=O)N[C@@H](CC(C)C)C(=O)N[C@H](C(=O)N[C@@H](CO)C(=O)N[C@@H](Cc1c[nH]c2ccccc12)C(=O)N[C@H](C(=O)N[C@@H](CCCCN)C(=O)N[C@@H](CCCNC(=N)N)C(=O)N[C@@H](CCCCN)C(=O)N[C@@H](CCCNC(=N)N)C(=O)N[C@@H](CCC(N)=O)C(=O)N[C@@H](CCC(N)=O)C(N)=O)[C@@H](C)CC)[C@@H](C)CC)[C@@H](C)O)[C@@H](C)O)C(C)C)C(C)C [Melittin, reference compound]
IC50 B. subtilis (B. subtilis): 20.8 µg/mL (≈ 7.31 µM) | IC50, E. coli; μg/mL (E. coli [2]; concentration needed to inhibit 50% of bacterial division): 0.7 µg/mL (≈ 0.246 µM) | Membrane Disruption? [3]: Yes | Non-Membrane Activity? [4]: None observed

CCCC[C@H](NC(C)=O)C(=O)N[C@H]1CC(=O)NCCCC[C@@H](C(=O)N[C@@H](C(=O)N2CCC[C@@H]2C(N)=O)C(C)C)NC(=O)[C@@H](Cc2ccc3ccccc3c2)NC(=O)[C@H](CCCNC(=N)N)NC(=O)[C@@H](Cc2ccc3ccccc3c2)NC(=O)[C@@H]2CCCN2C(=O)[C@H](CCCNC(=N)N)NC1=O [Opt 1] (Ac-[Nle]DRP[d2Nal]R[d2Nal]K[dV][dP]-NH2; lactam 2-8)
relative specificity Gram-positive versus Gram-negative (E. coli [2]): relatively specific for B. subtilis | Membrane Disruption? [3]: Yes, and Agglutination

CCCC[C@H](NC(C)=O)C(=O)N[C@H]1CC(=O)NCCCC[C@@H](C(=O)N[C@@H](C(=O)N2CCC[C@@H]2C(N)=O)C(C)C)NC(=O)[C@H](CCCNC(=N)N)NC(=O)[C@@H](Cc2ccc3ccccc3c2)NC(=O)[C@H](CCCNC(=N)N)NC(=O)[C@@H](Cc2ccc3ccccc3c2)NC(=O)[C@@H]2CCCN2C(=O)[C@H](CCCNC(=N)N)NC1=O [Opt 2] (Ac-[Nle]DRP[d2Nal]R[d2Nal]RK[dV][dP]-NH2; lactam 2-9)
relative specificity Gram-positive versus Gram-negative (E. coli [2]): relatively specific for B. subtilis | Membrane Disruption? [3]: Yes, and Agglutination

CCCC[C@H](NC(C)=O)C(=O)N[C@H]1CC(=O)NCCCC[C@@H](C(=O)N[C@H](Cc2ccccc2)C(=O)N[C@@H](C(N)=O)C(C)C)NC(=O)[C@H](Cc2c[nH]c3ccccc23)NC(=O)[C@H](CCCNC(=N)N)NC(=O)[C@@H](Cc2ccc3ccccc3c2)NC(=O)[C@@H]2CCCN2C(=O)[C@H](CCCNC(=N)N)NC1=O [Opt 3] (Ac-[Nle]DRP[d2Nal]RWK[dF][dV]-NH2; lactam 2-8)
Membrane Disruption? [3]: Yes, and Agglutination | Non-Membrane Activity? [4]: None observed

CCCC[C@H](NC(C)=O)C(=O)N[C@H]1CC(=O)NCCCC[C@@H](C(=O)N[C@@H](Cc2ccccc2)C(=O)N[C@H](C(N)=O)C(C)C)NC(=O)[C@H](Cc2c[nH]c3ccccc23)NC(=O)[C@H](CCCNC(=N)N)NC(=O)[C@@H](Cc2ccc3ccccc3c2)NC(=O)[C@@H]2CCCN2C(=O)[C@H](CCCNC(=N)N)NC1=O [Opt 4] (Ac-[Nle]DRP[d2Nal]RWKFV-NH2; lactam 2-8)
Membrane Disruption? [3]: Yes, and Agglutination

CCCC[C@H](NC(C)=O)C(=O)N[C@H]1CC(=O)NCCCC[C@@H](C(=O)N[C@H](C(=O)N[C@@H](Cc2ccccc2)C(N)=O)C(C)C)NC(=O)[C@H](Cc2c[nH]c3ccccc23)NC(=O)[C@H](CCCNC(=N)N)NC(=O)[C@@H](Cc2ccc3ccccc3c2)NC(=O)[C@@H]2CCCN2C(=O)[C@H](CCCNC(=N)N)NC1=O [Opt 5] (Ac-[Nle]DRP[d2Nal]RWKVF-NH2; lactam 2-8)
Membrane Disruption? [3]: Yes, and Agglutination | Non-Membrane Activity? [4]: Altered cell

(RW)4 [Model-01, reference compound]
concentration that prevented adhesion in a 2 day old biofilm (M. smegmatis; 2 day old biofilm): ≥ 100 µM | concentration that prevented adhesion on day 0 (M. smegmatis): 10 µM

Ac-[Nle]DP[d2Nal]RWK[dV][dP]-NH2 (lactam 2-7) [TCAM207]
time the peptide was stable and remained in the plasma [5]: up to 24 hrs | RBC casts [6]: no RBC casts were noted | change in red blood cell (RBC) count, hemoglobin (Hg), and hematocrit (Hct) [6]: slight (statistically insignificant) decreases in all parameters
